Consider 20 compounds from PubChem BioAssay AID256 (DTP/NCI, 2004).

Toxic doses and inconclusive results are not listed. Residues, ends and D or L forms follow the SMILES beside them.

This assay concerns CD2F1 mice, L1210 leukemia ip, survival T/C. Description: NCI In Vivo Anticancer Drug Screen. Data for tumor model L1210 Leukemia (intraperitoneal) in CD2F1 (CDF1) mice. The note with it: endpoint: mean survival time, higher = longer survival. Put shortly:
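Read-out first: treated-group measurement over vehicle-control measurement, expressed as a ratio. Animals bore a transplanted tumor line and were dosed with compound or vehicle.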

Where [1] appears, read: dose: 100.0 mg/kg/injection, schedule: Q01DX009 (ip), vehicle: saline with Tween-80.
[2] abbreviates: dose: 200.0 mg/kg/injection, schedule: Q01DX009 (ip), vehicle: saline with Tween-80.
Where [3] appears, read: dose: 100.0 mg/kg/injection, schedule: Q01DX001 (ip), vehicle: saline.
Where [4] appears, read: dose: 200.0 mg/kg/injection, schedule: Q01DX001 (ip), vehicle: saline.
Setting [5] is: dose: 400.0 mg/kg/injection, schedule: Q01DX001 (ip), vehicle: saline.
Setting [6] is: dose: 25.0 mg/kg/injection, schedule: Q01DX009 (ip), vehicle: saline.

As for `C#CCNC1=C(C)C(=O)C2=C(C1=O)[C@H](COC(N)=O)[C@]1(O)[C@H]3[C@@H](CN21)N3C` (stereo not given in full), the T/C by setting is: (dose: 1.5 mg/kg/injection, schedule: Q01DX001 (ip), vehicle: water) 104 % of control; (dose: 3.0 mg/kg/injection, schedule: Q01DX001 (ip), vehicle: water) 102 % of control; (dose: 6.0 mg/kg/injection, schedule: Q01DX001 (ip), vehicle: water) 100 % of control; (dose: 12.0 mg/kg/injection, schedule: Q01DX001 (ip), vehicle: water) 110 % of control; (dose: 24.0 mg/kg/injection, schedule: Q01DX001 (ip), vehicle: water) 110 % of control.
`OCC1OC(n2cnc3c(NCCc4ccc(O)c(O)c4)ncnc32)C(O)C1O` (stereo not given): the T/C is 104 % of control (dose: 12.5 mg/kg/injection, schedule: Q01DX005 (ip), vehicle: saline with Tween-80); 109 % of control (dose: 25.0 mg/kg/injection, schedule: Q01DX005 (ip), vehicle: saline with Tween-80); 116 % of control (dose: 50.0 mg/kg/injection, schedule: Q01DX005 (ip), vehicle: saline with Tween-80).
Consider `CS(=O)(=O)OCCN(CCOS(C)(=O)=O)c1cccc(Cl)c1`, for which the T/C was 112 % of control (dose: 2.0 mg/kg/injection, schedule: Q01DX010 (ip), vehicle: saline); 112 % of control (dose: 4.0 mg/kg/injection, schedule: Q01DX010 (ip), vehicle: saline); 116 % of control (dose: 4.0 mg/kg/injection, schedule: Q01DX015 (ip), vehicle: saline); 150 % of control (dose: 8.0 mg/kg/injection, schedule: Q01DX010 (ip), vehicle: saline); 119 % of control (dose: 8.0 mg/kg/injection, schedule: Q01DX015 (ip), vehicle: saline).
`O=c1ccn(C2OC(CO)C(F)(CO)C2O)c(=O)[nH]1` (stereo not given): the T/C reads like this: (dose: 12.5 mg/kg/injection, schedule: Q01DX005 (ip), vehicle: water) 103 % of control; (dose: 25.0 mg/kg/injection, schedule: Q01DX005 (ip), vehicle: water) 109 % of control; (dose: 50.0 mg/kg/injection, schedule: Q01DX005 (ip), vehicle: water) 97 % of control; (dose: 100.0 mg/kg/injection, schedule: Q01DX005 (ip), vehicle: water) 94 % of control; (dose: 200.0 mg/kg/injection, schedule: Q01DX005 (ip), vehicle: water) 105 % of control.
Regarding `C(=Nc1ccccc1)c1ccc(C=Nc2ccccc2)cc1`, the T/C is 106 % of control under setting [1]; 97 % of control (dose: 100.0 mg/kg/injection, schedule: Q04DX003 (ip), vehicle: saline sonified); 94 % of control under setting [2]; 102 % of control (dose: 200.0 mg/kg/injection, schedule: Q04DX003 (ip), vehicle: saline sonified); 97 % of control (dose: 400.0 mg/kg/injection, schedule: Q04DX003 (ip), vehicle: saline sonified).
For `O=C(Nc1ccc(C2=NCCN2)cc1)Nc1cccc(NC(=O)Nc2ccc(C3=NCCN3)cc2)c1`, the T/C is, setting by setting: (dose: 1.8 mg/kg/injection, schedule: Q01DX008 (iv), vehicle: other) 103 % of control; (dose: 3.75 mg/kg/injection, schedule: Q01DX008 (iv), vehicle: other) 103 % of control.
As for `N#CNC=Nc1ccccc1`, the T/C runs as follows: (dose: 100.0 mg/kg/injection, schedule: Q04DX003 (ip), vehicle: saline) 95 % of control; (dose: 200.0 mg/kg/injection, schedule: Q04DX003 (ip), vehicle: saline) 95 % of control; (dose: 400.0 mg/kg/injection, schedule: Q04DX003 (ip), vehicle: saline) 100 % of control.
On to `Cc1cc2c3ccc(C)[n+](C)c3ccc2n1C`, for which the T/C is 103 % of control (dose: 1.19 mg/kg/injection, schedule: Q01DX001 (ip), vehicle: saline); 109 % of control (dose: 2.37 mg/kg/injection, schedule: Q01DX001 (ip), vehicle: saline); 97 % of control (dose: 4.75 mg/kg/injection, schedule: Q01DX001 (ip), vehicle: saline).
Take `CNC(=O)c1ccc2ccccc2c1`: the T/C was 106 % of control (dose: 50.0 mg/kg/injection, schedule: Q01DX001 (ip), vehicle: saline); 95 % of control under setting [3]; 93 % of control under setting [4]; 95 % of control under setting [5].
`C/C(=N\n1cc(-c2ccccc2)nc1N)c1ccccc1`: the T/C reads like this: (dose: 75.0 mg/kg/injection, schedule: Q01DX001 (ip), vehicle: saline) 91 % of control; (dose: 150.0 mg/kg/injection, schedule: Q01DX001 (ip), vehicle: saline) 97 % of control; (dose: 300.0 mg/kg/injection, schedule: Q01DX001 (ip), vehicle: saline) 93 % of control.
For the compound `CC1=CC(=O)C(CCC(=O)O)C(C)(C)C1` (stereo not given), the T/C reads like this: (dose: 100.0 mg/kg/injection, schedule: Q04DX002 (ip), vehicle: saline with Tween-80) 91 % of control; (dose: 200.0 mg/kg/injection, schedule: Q04DX002 (ip), vehicle: saline with Tween-80) 94 % of control; (dose: 400.0 mg/kg/injection, schedule: Q04DX002 (ip), vehicle: saline with Tween-80) 94 % of control.
Consider `Nc1ncnc2c1ncn2C1OC(C(=O)OCCO)C(O)C1O` (stereo not given), for which the T/C (dose: 12.5 mg/kg/injection, schedule: Q01DX009 (ip), vehicle: saline) is 108 % of control; the T/C under setting [6] is 114 % of control; the T/C (dose: 25.0 mg/kg/injection, schedule: Q01DX009 (ip), vehicle: suspension in saline) is 110 % of control; the T/C (dose: 25.0 mg/kg/injection, schedule: Q04DX002 (ip), vehicle: saline) is 93 % of control; the T/C (dose: 50.0 mg/kg/injection, schedule: Q01DX009 (ip), vehicle: suspension in saline) was 124 % of control; the T/C (dose: 50.0 mg/kg/injection, schedule: Q04DX002 (ip), vehicle: saline) was 95 % of control. Moreover, the T/C is 93 % of control (dose: 100.0 mg/kg/injection, schedule: Q04DX002 (ip), vehicle: saline) and 90 % of control (dose: 200.0 mg/kg/injection, schedule: Q04DX002 (ip), vehicle: saline).
Turning to `Cc1ccc(NC(=O)Oc2ccccc2F)cc1C`, the T/C was 100 % of control (dose: 50.0 mg/kg/injection, schedule: Q01DX009 (ip), vehicle: saline with Tween-80); 87 % of control under setting [1]; 104 % of control under setting [2].
Turning to `NC(CO)C(O)C(O)C(O)CO` (stereo not given), the T/C was 106 % of control under setting [3], 98 % of control under setting [4] and 103 % of control under setting [5].
For `C(=N\N=C\C1CCc2ccccc21)/c1ccco1` (stereo not given), the T/C runs as follows: under setting [1], 88 % of control; (dose: 100.0 mg/kg/injection, schedule: Q04DX003 (ip), vehicle: saline with Tween-80) 94 % of control; (dose: 200.0 mg/kg/injection, schedule: Q04DX003 (ip), vehicle: saline with Tween-80) 93 % of control; (dose: 400.0 mg/kg/injection, schedule: Q01DX009 (ip), vehicle: saline with Tween-80) 88 % of control; (dose: 400.0 mg/kg/injection, schedule: Q04DX003 (ip), vehicle: saline with Tween-80) 87 % of control.
Take `Cc1cc(=S)[nH]c2ccccc12`: the T/C (dose: 37.5 mg/kg/injection, schedule: Q01DX009 (ip), vehicle: saline) was 91 % of control; the T/C (dose: 75.0 mg/kg/injection, schedule: Q01DX009 (ip), vehicle: saline) was 91 % of control; the T/C (dose: 150.0 mg/kg/injection, schedule: Q01DX009 (ip), vehicle: saline) is 96 % of control.
In the case of `CC1CCCN(N=Nc2ccc(Br)cc2-c2nc(N)c3cc(Br)ccc3n2)C1` (stereo not given), the T/C reads like this: (dose: 100.0 mg/kg/injection, schedule: Q01DX001 (ip), vehicle: Klucel (hydroxypropylcellulose) (HPC)) 103 % of control; (dose: 400.0 mg/kg/injection, schedule: Q01DX001 (ip), vehicle: Klucel (hydroxypropylcellulose) (HPC)) 90 % of control.
In the case of `NC(N)=NCCCC(N)C(=O)NC(CCC(=O)O)C(=O)O` (stereo not drawn) (H-Arg-Glu-OH; configuration not given here), the T/C runs as follows: under setting [6], 91 % of control; (dose: 50.0 mg/kg/injection, schedule: Q01DX009 (ip), vehicle: saline) 94 % of control; (dose: 100.0 mg/kg/injection, schedule: Q01DX009 (ip), vehicle: saline) 89 % of control; (dose: 200.0 mg/kg/injection, schedule: Q01DX009 (ip), vehicle: saline) 89 % of control; (dose: 400.0 mg/kg/injection, schedule: Q01DX009 (ip), vehicle: saline) 93 % of control.
Consider `CN(c1ccccc1)c1ccccc1`, for which the T/C is 94 % of control (dose: 100.0 mg/kg/injection, schedule: Q01DX001 (ip), vehicle: saline with Tween-80) and 89 % of control (dose: 200.0 mg/kg/injection, schedule: Q01DX001 (ip), vehicle: saline with Tween-80).
For the compound `Nc1ccc(CC(=O)Nc2ccc(S(=O)(=O)F)cc2)cc1`, the T/C reads like this: under setting [3], 102 % of control; under setting [4], 103 % of control; under setting [5], 105 % of control.
